{
  "source": "patent US20040094749A1",
  "about": "“Method for producing a phenothiazine granulate with improved properties” (priority 2000, published 2004)",
  "assay": "Solubility behavior of solid phenothiazine in acrylic acid (method 1b, NIR probe)",
  "conditions": "room temperature",
  "protocol": "Method for determining the solubility behavior of solid phenothiazine of different forms and particle size distributions\nThereafter, at time intervals of from 1 to 5 mm, either a.) a sample of the dispersion was taken and filtered and the phenothiazine content was determined by UV spectroscopy or b.) the phenothiazine content was determined directly by means of an NIR probe which dipped into the dispersion of phenothiazine in acrylic acid (NIRVIS universal spectrometer from Buchi having a transmission probe with 1.5 mm slit width. In order to prevent disturbances by solid particles in the measuring slit, this was closed by means of a metal screen having a mesh size of 0.18 mm).\nFor this purpose, in each case 1.33 g of the respective sample were added to 66 g of acrylic acid and measurements were carried out at intervals of one minute (Graph. 1).",
  "data": [
    {"smiles": "c1ccc2c(c1)Nc1ccccc1S2", "note": "[phenothiazine, 2,3,5,6-dibenzo-1,4-triazine]", "values": [
      {"measurement": "maximum solubility of phenothiazine in acrylic acid", "value": "about 2.8 % (m/m)"}
    ]}
  ]
}
